Measured values as given in patent US9365502B2, “Neuroactive substituted cyclopenta[b]phenanthrenes as modulators for GABA type-A receptors” (priority 2013, dated 2016).

| melting point | SMILES |
| --- | --- |
| 162 to 164 °C | C[C@]12C[C@H]3CC[C@@H]4C[C@@H](O)CC[C@H]4[C@@H]3C[C@@H]1CC[C@@H]2C#N |
| 175 to 177 °C | C[C@]12C[C@H]3CC[C@H]4C[C@@H](O)CC[C@H]4[C@@H]3C[C@@H]1CCC2=O |
| 179 to 181 °C | C[C@@]12CC[C@H](O)C[C@H]1CC[C@@H]1C[C@]3(C)C(=O)CC[C@H]3C[C@H]12 |
| 138 to 140 °C | C[C@@]12CC[C@H](O)C[C@H]1CC[C@@H]1C[C@@]3(C)[C@@H](CC[C@@]34CO4)C[C@H]12 |
| 145 to 147 °C | C[C@]12C[C@H]3CC[C@@H]4C[C@@H](O)CC[C@@]4(C)[C@@H]3C[C@@H]1CC[C@@H]2C#N |
| 165 to 166 °C | C[C@]12CC(=O)C[C@@H]1C[C@H]1[C@@H](CC[C@H]3C[C@H](O)CC[C@@H]31)C2 |
| 165 to 167 °C | C[C@@]12C[C@@H]3CC[C@H]4C[C@H](O)CC[C@@H]4[C@H]3C[C@H]1CC[C@]21CO1 |
| 163 to 165 °C | C[C@@]12C[C@@H]3CC[C@H]4C[C@H](O)CC[C@@H]4[C@H]3C[C@H]1CC[C@H]2C#N |
| 128 to 130 °C | CC(=O)[C@@H]1CC[C@@H]2C[C@H]3[C@@H](CC[C@H]4C[C@H](O)CC[C@@H]43)C[C@]21C |
| 170 to 172 °C | C[C@@]12CC[C@H](O)C[C@H]1CC[C@@H]1C[C@]3(C)C(C#N)=CC[C@H]3C[C@H]12 (stereo in doubt) |
| 174 to 176 °C | C[C@@]12C[C@@H]3CC[C@@H]4C[C@H](O)CC[C@@H]4[C@H]3C[C@H]1CCC2=O (stereo in doubt) |
